Assays:
Type in all cases: biochemical
JAK1 = molecular target: T1, JAK1 (Homo sapiens, UniProt P23458); test: JAK1 enzyme inhibition test (LANCE method); settings: 1 μM test compound; for inhibition at 1 µM: read-out: JAK1 enzyme inhibitory activity (%, 1 μM)
T1 construct: purchased Invitrogen
Outline: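 TR-FRET (LANCE) with ULight-JAK1 peptide (300 nM working solution) and ATP (150 μM working solution) in HEPES pH 7.5, MgCl2, EGTA, DTT buffer; 1 h at room temperature. EDTA stop plus Eu-anti-phosphotyrosine antibody, 665 nm read after 1 h. Inhibition relative to enzyme-free wells as 100%.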

JAK2 = molecular target: T2, JAK2 (Homo sapiens, UniProt O60674); test: JAK2 enzyme inhibition test (LANCE method); settings: 1 μM test compound; for inhibition at 1 µM: read-out: JAK2 enzyme inhibitory activity (%, 1 μM)
T2 construct: purchased Invitrogen
Outline: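 Recombinant JAK2 (6 ng/mL solution) phosphorylated ULight-JAK1 peptide (300 nM solution) with ATP (45 μM solution) in pH 7.5 HEPES/MgCl2/DTT buffer for 1 hr at room temperature. After EDTA stop and europium anti-phosphotyrosine antibody for 1 hr, TR-FRET read at 665 nm; inhibition relative to enzyme-free wells as 100%.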

TYK2 = molecular target: T3, TYK2 (Homo sapiens, UniProt P29597); test: TYK2 enzyme inhibition test (LANCE method); settings: 1 μM test compound; for inhibition at 1 µM: read-out: TYK2 enzyme inhibitory activity (%, 1 μM)
T3 construct: purchased Invitrogen
Outline: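 Recombinant TYK2 (375 ng/mL working solution) with ULight-JAK1 peptide (300 nM working solution) and ATP (30 μM working solution) in HEPES pH 7.5 buffer with MgCl2, EGTA, DTT, Tween20, BSA, reacted 1 h at RT. EDTA-stopped, Eu-anti-phosphotyrosine TR-FRET read at 665 nm; inhibition relative to enzyme-free wells as 100%.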

JAK3 = molecular target: T4, JAK3 (Homo sapiens, UniProt P52333); test: JAK3 enzyme inhibition test (LANCE method); settings: 1 μM test compound; for inhibition at 1 µM: read-out: JAK3 enzyme inhibitory activity (%, 1 μM)
T4 construct: purchased Invitrogen
T4 sequence (P52333 1-1124): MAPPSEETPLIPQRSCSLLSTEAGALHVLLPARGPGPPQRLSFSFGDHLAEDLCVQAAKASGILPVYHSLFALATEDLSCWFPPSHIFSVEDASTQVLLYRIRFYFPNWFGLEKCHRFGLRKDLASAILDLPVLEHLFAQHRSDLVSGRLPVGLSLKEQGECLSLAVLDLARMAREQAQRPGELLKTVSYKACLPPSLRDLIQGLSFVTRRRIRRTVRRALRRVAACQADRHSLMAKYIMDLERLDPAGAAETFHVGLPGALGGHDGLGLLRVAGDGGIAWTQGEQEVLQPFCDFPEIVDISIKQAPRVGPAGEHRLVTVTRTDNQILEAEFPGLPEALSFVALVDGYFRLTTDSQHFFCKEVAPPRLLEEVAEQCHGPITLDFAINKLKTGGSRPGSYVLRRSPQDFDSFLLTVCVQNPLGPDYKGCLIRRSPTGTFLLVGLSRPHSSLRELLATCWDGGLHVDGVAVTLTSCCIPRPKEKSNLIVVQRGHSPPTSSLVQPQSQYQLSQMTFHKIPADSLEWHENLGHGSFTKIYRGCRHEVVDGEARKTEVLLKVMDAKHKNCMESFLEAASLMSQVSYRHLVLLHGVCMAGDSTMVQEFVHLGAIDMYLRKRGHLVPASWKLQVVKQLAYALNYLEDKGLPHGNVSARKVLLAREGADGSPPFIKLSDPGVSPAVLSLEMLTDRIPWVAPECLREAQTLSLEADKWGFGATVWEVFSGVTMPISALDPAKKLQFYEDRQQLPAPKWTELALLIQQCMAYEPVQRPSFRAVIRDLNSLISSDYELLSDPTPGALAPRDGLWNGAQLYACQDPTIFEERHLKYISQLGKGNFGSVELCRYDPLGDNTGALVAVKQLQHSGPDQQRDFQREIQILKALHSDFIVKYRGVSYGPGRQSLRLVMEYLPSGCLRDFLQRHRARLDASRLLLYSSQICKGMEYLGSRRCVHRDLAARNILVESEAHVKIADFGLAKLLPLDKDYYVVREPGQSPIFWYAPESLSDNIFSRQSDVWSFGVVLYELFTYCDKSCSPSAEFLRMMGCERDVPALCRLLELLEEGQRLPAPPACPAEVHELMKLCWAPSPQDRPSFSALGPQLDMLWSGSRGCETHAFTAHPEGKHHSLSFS
Outline: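 Recombinant JAK3 (12 ng/mL solution) with ULight-JAK1 peptide (300 nM solution) and ATP (15 μM solution) in HEPES pH 7.5 buffer, 1 h at room temperature. EDTA stop with Eu-anti-phosphotyrosine antibody; TR-FRET at 665 nm. Inhibition relative to enzyme-free wells as 100%.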

T3 sequence (P29597 whole entry): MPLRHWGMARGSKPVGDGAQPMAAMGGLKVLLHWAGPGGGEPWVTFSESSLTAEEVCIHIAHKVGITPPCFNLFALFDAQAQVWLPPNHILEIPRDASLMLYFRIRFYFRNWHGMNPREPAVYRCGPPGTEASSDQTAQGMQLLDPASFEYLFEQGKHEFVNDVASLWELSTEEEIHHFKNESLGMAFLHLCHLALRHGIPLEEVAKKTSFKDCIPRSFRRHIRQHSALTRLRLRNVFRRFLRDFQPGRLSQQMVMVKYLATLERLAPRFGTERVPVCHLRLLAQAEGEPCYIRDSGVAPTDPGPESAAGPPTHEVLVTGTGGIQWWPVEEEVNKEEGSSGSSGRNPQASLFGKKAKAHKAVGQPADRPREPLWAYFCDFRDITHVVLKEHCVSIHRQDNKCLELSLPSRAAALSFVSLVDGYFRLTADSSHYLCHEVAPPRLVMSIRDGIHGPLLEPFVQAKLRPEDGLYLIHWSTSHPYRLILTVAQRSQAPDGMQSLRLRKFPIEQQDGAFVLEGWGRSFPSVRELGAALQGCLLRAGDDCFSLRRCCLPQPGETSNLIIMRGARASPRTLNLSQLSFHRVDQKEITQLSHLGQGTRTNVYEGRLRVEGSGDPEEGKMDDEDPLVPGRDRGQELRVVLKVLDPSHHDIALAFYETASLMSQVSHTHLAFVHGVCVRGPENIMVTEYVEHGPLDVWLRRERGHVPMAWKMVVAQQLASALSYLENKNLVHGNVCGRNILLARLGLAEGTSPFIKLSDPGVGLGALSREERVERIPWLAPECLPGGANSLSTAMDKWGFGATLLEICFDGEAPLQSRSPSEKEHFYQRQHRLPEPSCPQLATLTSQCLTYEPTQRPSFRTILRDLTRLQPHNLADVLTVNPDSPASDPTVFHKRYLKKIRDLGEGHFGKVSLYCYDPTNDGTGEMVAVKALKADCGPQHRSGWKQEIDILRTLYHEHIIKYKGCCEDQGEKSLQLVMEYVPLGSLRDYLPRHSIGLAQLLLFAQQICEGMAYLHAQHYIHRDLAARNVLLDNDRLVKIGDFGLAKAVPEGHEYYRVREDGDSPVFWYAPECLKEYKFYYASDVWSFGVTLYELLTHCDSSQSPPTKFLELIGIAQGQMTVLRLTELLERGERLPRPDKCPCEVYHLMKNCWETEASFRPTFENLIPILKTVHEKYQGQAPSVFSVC
T1 sequence (P23458 whole entry): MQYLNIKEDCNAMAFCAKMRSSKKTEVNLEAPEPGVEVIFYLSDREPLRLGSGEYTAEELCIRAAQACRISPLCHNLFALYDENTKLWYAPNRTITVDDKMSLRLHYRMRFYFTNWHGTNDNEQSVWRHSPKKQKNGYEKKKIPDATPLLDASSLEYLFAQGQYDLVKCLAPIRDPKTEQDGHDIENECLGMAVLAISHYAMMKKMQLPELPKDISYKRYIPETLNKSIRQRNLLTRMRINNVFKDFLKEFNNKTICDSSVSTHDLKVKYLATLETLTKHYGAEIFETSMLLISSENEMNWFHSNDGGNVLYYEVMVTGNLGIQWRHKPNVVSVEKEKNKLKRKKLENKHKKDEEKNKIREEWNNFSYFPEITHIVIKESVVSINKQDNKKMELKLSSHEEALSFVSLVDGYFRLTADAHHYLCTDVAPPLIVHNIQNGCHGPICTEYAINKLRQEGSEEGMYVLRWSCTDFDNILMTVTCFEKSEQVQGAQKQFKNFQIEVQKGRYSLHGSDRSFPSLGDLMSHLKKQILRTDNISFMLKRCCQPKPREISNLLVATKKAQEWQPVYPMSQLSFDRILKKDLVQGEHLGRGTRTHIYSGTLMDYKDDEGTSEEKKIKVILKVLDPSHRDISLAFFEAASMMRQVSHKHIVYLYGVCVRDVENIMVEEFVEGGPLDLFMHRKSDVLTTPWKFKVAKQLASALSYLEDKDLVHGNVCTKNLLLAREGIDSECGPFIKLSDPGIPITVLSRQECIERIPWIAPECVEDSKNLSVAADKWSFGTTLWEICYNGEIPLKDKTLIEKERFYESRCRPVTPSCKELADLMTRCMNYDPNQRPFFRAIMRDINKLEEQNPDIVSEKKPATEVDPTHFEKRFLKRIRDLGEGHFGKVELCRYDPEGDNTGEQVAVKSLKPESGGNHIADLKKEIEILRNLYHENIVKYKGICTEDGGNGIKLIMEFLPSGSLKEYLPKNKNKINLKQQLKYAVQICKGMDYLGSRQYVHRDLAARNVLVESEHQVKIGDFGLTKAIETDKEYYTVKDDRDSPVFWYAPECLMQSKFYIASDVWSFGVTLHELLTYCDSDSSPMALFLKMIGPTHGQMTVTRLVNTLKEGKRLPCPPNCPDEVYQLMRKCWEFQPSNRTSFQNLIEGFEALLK
T2 sequence (O60674 whole entry): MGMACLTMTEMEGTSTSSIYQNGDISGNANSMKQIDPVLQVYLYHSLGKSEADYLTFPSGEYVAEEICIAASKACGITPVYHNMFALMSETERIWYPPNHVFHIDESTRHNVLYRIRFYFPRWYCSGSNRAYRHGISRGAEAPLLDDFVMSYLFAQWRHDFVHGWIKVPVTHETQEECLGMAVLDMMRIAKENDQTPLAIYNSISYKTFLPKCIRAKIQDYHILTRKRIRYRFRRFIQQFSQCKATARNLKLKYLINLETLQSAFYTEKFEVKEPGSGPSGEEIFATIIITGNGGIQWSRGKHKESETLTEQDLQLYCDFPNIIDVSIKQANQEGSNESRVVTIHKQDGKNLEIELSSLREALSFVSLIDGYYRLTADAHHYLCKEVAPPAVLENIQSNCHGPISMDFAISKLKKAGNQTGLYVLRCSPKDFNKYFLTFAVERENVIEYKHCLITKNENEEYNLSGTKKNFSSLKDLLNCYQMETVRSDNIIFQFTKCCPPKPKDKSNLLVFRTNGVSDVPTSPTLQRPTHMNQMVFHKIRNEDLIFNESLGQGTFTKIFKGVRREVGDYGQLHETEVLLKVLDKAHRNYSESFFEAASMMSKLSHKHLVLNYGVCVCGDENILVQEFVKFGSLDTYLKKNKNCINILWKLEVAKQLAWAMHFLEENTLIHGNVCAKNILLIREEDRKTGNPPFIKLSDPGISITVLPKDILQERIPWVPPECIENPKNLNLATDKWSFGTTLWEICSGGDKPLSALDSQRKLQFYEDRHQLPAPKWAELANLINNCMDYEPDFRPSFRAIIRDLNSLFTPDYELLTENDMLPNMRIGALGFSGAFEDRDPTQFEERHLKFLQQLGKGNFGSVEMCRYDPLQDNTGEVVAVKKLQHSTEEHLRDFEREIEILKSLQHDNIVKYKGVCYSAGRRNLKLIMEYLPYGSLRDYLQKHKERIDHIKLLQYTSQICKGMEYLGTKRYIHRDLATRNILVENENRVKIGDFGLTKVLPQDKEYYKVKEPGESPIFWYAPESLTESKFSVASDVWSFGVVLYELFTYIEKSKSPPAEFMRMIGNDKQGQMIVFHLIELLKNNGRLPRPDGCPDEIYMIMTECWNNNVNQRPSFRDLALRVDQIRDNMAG

SMILES | inhibition at 1 µM (JAK1) [%] | inhibition at 1 µM (JAK2) [%] | inhibition at 1 µM (TYK2) [%] | inhibition at 1 µM (JAK3) [%] | JAK1 enzyme inhibitory activity (%, 1 μM) (JAK1) [%] | JAK2 enzyme inhibitory activity (%, 1 μM) (JAK2) [%] | TYK2 enzyme inhibitory activity (%, 1 μM) (TYK2) [%] | JAK3 enzyme inhibitory activity (%, 1 μM) (JAK3) [%]
Cn1nc(-c2cn(C(C3CC3)C3CC3)c(=O)c3c(N)n[nH]c23)cc1C1=CCCCC1 [Example 147, 3-amino-7-(5-(cyclohex-1-en-1-yl)-1-methyl-1H-pyrazol-3-yl)-5-(dicyclopropylmethyl)-1,5-dihydro-4H-pyrazolo[4,3-c]pyridin-4-one] | 101 | 101 | 110 | 103 | – | – | – | –
Cn1nc(-c2cn(C(C3CC3)C3CC3)c(=O)c3c(N)n[nH]c23)cc1C1CCCCC1 [Example 148, 3-amino-7-(5-cyclohexyl-1-methyl-1H-pyrazol-3-yl)-5-(dicyclopropylmethyl)-1,5-dihydro-4H-pyrazolo[4,3-c]pyridin-4-one] | 101 | 101 | 110 | 104 | – | – | – | –
CN1CCN(c2cc(-c3cn(C(C4CC4)C4CC4)c(=O)c4c(N)n[nH]c34)nn2C)CC1 [Example 149, 3-amino-5-(dicyclopropylmethyl)-7-(1-methyl-5-(4-methylpiperazin-1-yl)-1H-pyrazol-3-yl)-1,5-dihydro-4H-pyrazolo[4,3-c]pyridin-4-one] | 100 | 99 | 106 | 101 | – | – | – | –
CN1CCCN(c2cc(-c3cn(C(C4CC4)C4CC4)c(=O)c4c(N)n[nH]c34)nn2C)CC1 [Example 150, 3-amino-5-(dicyclopropylmethyl)-7-(1-methyl-5-(4-methyl-1,4-diazepan-1-yl)-1H-pyrazol-3-yl)-1,5-dihydro-4H-pyrazolo[4,3-c]pyridin-4-one] | 98 | 100 | 102 | 101 | – | – | – | –
Cn1nc(-c2cn(C(C3CC3)C3CC3)c(=O)c3c(N)n[nH]c23)cc1N1C2CCC1COC2 [Example 151, 3-amino-5-(dicyclopropylmethyl)-7-(1-methyl-5-(3-oxa-8-azabicyclo[3.2.1]oct-8-yl)-1H-pyrazol-3-yl)-1,5-dihydro-4H-pyrazolo[4,3-c]pyridin-4-one] | 99 | 100 | 102 | 101 | – | – | – | –
CC1CCCCC1n1cc(-c2cc(N3CCOCC3)n(C)n2)c2[nH]nc(N)c2c1=O (stereo not drawn) [Example 152, 3-amino-5-(2-methylcyclohexyl)-7-(1-methyl-5-(morpholin-4-yl)-1H-pyrazol-3-yl)-1,5-dihydro-4H-pyrazolo[4,3-c]pyridin-4-one] | – | 101 | 102 | 101 | 100 | – | – | –
CC1CCCCC1n1cc(-c2cc(N3CCOCC3)n(C)n2)c2[nH]nc(N)c2c1=O (stereo not drawn) [Example 153, 3-amino-5-(2-methylcyclohexyl)-7-(1-methyl-5-(morpholin-4-yl)-1H-pyrazol-3-yl)-1,5-dihydro-4H-pyrazolo[4,3-c]pyridin-4-one] | – | – | – | – | 99 | 98 | 103 | 101
CC1CCCCC1n1cc(-c2cc(N3CCOCC3)n(C)n2)c2[nH]nc(N)c2c1=O (stereo not drawn) [Example 154, 3-amino-5-(2-methylcyclohexyl)-7-(1-methyl-5-(morpholin-4-yl)-1H-pyrazol-3-yl)-1,5-dihydro-4H-pyrazolo[4,3-c]pyridin-4-one] | – | – | – | – | 97 | 98 | 102 | 100
CC1CCCCC1n1cc(-c2cc(N3CCOCC3)n(C)n2)c2[nH]nc(N)c2c1=O (stereo not drawn) [Example 155, 3-amino-5-(2-methylcyclohexyl)-7-(1-methyl-5-(morpholin-4-yl)-1H-pyrazol-3-yl)-1,5-dihydro-4H-pyrazolo[4,3-c]pyridin-4-one] | – | – | – | – | 76 | 81 | 101 | 98
CN(C)[C@@H]1CCN(c2cc(-c3cn(C(C4CC4)C4CC4)c(=O)c4c(N)n[nH]c34)nn2C)C1 [Example 156, 3-amino-5-(dicyclopropylmethyl)-7-(5-((3R)-3-(dimethylamino)pyrrolidin-1-yl)-1-methyl-1H-pyrazol-3-yl)-1,5-dihydro-4H-pyrazolo[4,3-c]pyridin-4-one] | 100 | 99 | 100 | 100 | – | – | – | –
Cn1nc(-c2cn(C(C3CC3)C3CC3)c(=O)c3c(N)n[nH]c23)cc1N1CCC[C@@H]1CO [Example 157, 3-amino-5-(dicyclopropylmethyl)-7-(5-((2R)-2-(hydroxymethyl)pyrrolidin-1-yl)-1-methyl-1H-pyrazol-3-yl)-1,5-dihydro-4H-pyrazolo[4,3-c]pyridin-4-one] | 99 | 99 | 101 | 100 | – | – | – | –
Cn1nc(-c2cn(C(C3CC3)C3CC3)c(=O)c3c(N)n[nH]c23)cc1N1CCC[C@@H]1CN1CCCC1 [Example 158, 3-amino-5-(dicyclopropylmethyl)-7-(1-methyl-5-((2R)-2-(pyrrolidin-1-ylmethyl)pyrrolidin-1-yl)-1H-pyrazol-3-yl)-1,5-dihydro-4H-pyrazolo[4,3-c]pyridin-4-one] | 92 | 99 | 101 | 100 | – | – | – | –
COC[C@H]1CCCN1c1cc(-c2cn(C(C3CC3)C3CC3)c(=O)c3c(N)n[nH]c23)nn1C [Example 159, 3-amino-5-(dicyclopropylmethyl)-7-(5-((2R)-2-(methoxymethyl)pyrrolidin-1-yl)-1-methyl-1H-pyrazol-3-yl)-1,5-dihydro-4H-pyrazolo[4,3-c]pyridin-4-one] | 99 | 99 | 100 | 100 | – | – | – | –
CN(C)[C@H]1CCN(c2cc(-c3cn(C(C4CC4)C4CC4)c(=O)c4c(N)n[nH]c34)nn2C)C1 [Example 160, 3-amino-5-(dicyclopropylmethyl)-7-(5-((3S)-3-(dimethylamino)pyrrolidin-1-yl)-1-methyl-1H-pyrazol-3-yl)-1,5-dihydro-4H-pyrazolo[4,3-c]pyridin-4-one] | 99 | 100 | 100 | 100 | – | – | – | –
Cn1nc(-c2cn(C(C3CC3)C3CC3)c(=O)c3c(N)n[nH]c23)cc1C1CC1 [Example 161, 3-amino-7-(5-cyclopropyl-1-methyl-1H-pyrazol-3-yl)-5-(dicyclopropylmethyl)-1,5-dihydro-4H-pyrazolo[4,3-c]pyridin-4-one] | 100 | 99 | 100 | 100 | – | – | – | –

Source: patent US9637483B2, “Heterocyclic compound” (TAKEDA PHARMACEUTICAL COMPANY LIMITED, priority 2013, dated 2017)
